Source: patent publication US10344049B2, “Substituted steroids for the treatment of cancer” (AQUAVAN TECHNOLOGY CO., LTD., priority 2017, dated 2019)
Read-outs that look alike come from different tables or passages of the source.

Key:
Assay type in all cases: cell-based
[1] = tested on: human Glioblastoma cells U87-MG; experiment: Cell viability test (Resazurin), U87-MG cells; set-up: evaluation of ability to inhibit cell growth activity (IC50): scale not given here; settings: for evaluation of ability to inhibit cell growth activity (IC50): grade of the IC50 of Table 2
Procedure: (§1) Cell viability was determined with Resazurin (at a final concentration of 25 μg/mL).

[2] = tested on: African green monkey kidney cells Vero; experiment: Cell viability test (Resazurin), Vero cells
Procedure: as §1

[3] = tested on: human breast cancer cells MDA-MB-231; experiment: Cell viability test (Resazurin), MDA-MB-231 cells; set-up: evaluation of ability to inhibit cell growth activity (IC50): scale not given here
Procedure: as §1

[4] = tested on: human breast cancer cells MDA-MB-468; experiment: Cell viability test (Resazurin), MDA-MB-468 cells
Procedure: as §1

[5] = tested on: human colorectal cancer cells SW-480; experiment: Cell viability test (Resazurin), SW480 cells; set-up: evaluation of ability to inhibit cell growth activity (IC50): scale not given here
Procedure: as §1

[6] = tested on: human lung cancer cells A549; experiment: Cell viability test (Resazurin), A549 cells; set-up: evaluation of ability to inhibit cell growth activity (IC50): scale not given here
Procedure: as §1

[7] = tested on: human leukemia cells U937; experiment: Cell viability test (Resazurin), U937 cells
Procedure: as §1

[8] = tested on: human liver cancer cells Mahlavu; experiment: Cell viability test (Resazurin), Mahlavu cells; settings: for evaluation of ability to inhibit cell growth activity (IC50): grade of the IC50 of Table 2
Procedure: as §1

[9] = Homo sapiens, U-87 MG, 48 h, 0.1% FCS, Resazurin, read-out: inhibitory concentrations of cell growth activity IC50
[10] = Homo sapiens, U-87 MG, grade of the IC50 of Table 2, read-out: evaluation of ability to inhibit cell growth activity (IC50)
[11] = Chlorocebus sabaeus, Vero, 48 h, 0.1% FCS, Resazurin, read-out: inhibitory concentrations of cell growth activity IC50
[12] = Chlorocebus sabaeus, Vero, grade of the IC50 of Table 2, read-out: evaluation of ability to inhibit cell growth activity (IC50)
[13] = Homo sapiens, MDA-MB-231, 48 h, MDA-MB-231 cells, 48 hours, 0.1% FCS, Resazurin, read-out: inhibitory concentrations of cell growth activity IC50
[14] = Homo sapiens, MDA-MB-231, MDA-MB-231 cells, grade of the IC50 of Table 2, read-out: evaluation of ability to inhibit cell growth activity (IC50)
[15] = Homo sapiens, MDA-MB-468, 48 h, MDA-MB-468 cells, 48 hours, 0.1% FCS, Resazurin, read-out: inhibitory concentrations of cell growth activity IC50
[16] = Homo sapiens, MDA-MB-468, MDA-MB-468 cells, grade of the IC50 of Table 2, read-out: evaluation of ability to inhibit cell growth activity (IC50)
[17] = Homo sapiens, SW480, 48 h, SW480 cells, 48 hours, 0.1% FCS, Resazurin, read-out: inhibitory concentrations of cell growth activity IC50
[18] = Homo sapiens, SW480, SW480 cells, grade of the IC50 of Table 2, read-out: evaluation of ability to inhibit cell growth activity (IC50)
[19] = Homo sapiens, A549, 48 h, A549 cells, 48 hours, 0.1% FCS, Resazurin, read-out: inhibitory concentrations of cell growth activity IC50
[20] = Homo sapiens, A549, A549 cells, grade of the IC50 of Table 2, read-out: evaluation of ability to inhibit cell growth activity (IC50)
[21] = Homo sapiens, U-937, 48 h, U937 cells, 48 hours, 0.1% FCS, Resazurin, read-out: inhibitory concentrations of cell growth activity IC50
[22] = Homo sapiens, U-937, U937 cells, grade of the IC50 of Table 2, read-out: evaluation of ability to inhibit cell growth activity (IC50)
[23] = Homo sapiens, Mahlavu, 48 h, 0.1% FCS, Resazurin, read-out: inhibitory concentrations of cell growth activity IC50
[24] = Homo sapiens, Mahlavu, grade of the IC50 of Table 2, read-out: evaluation of ability to inhibit cell growth activity (IC50)
[25] = MDA-MB-468 cells, grade of the IC50 of Table 2
[26] = SW480 cells, grade of the IC50 of Table 2
[27] = 48 hours, 0.1% FCS, Resazurin, read-out: inhibitory concentrations of cell growth activity IC50
[28] = grade of the IC50 of Table 2, read-out: evaluation of ability to inhibit cell growth activity (IC50)

Row | Compound | IC50 [1, 9] [µM] | IC50 [1, 10] [µM] | evaluation of ability to inhibit cell growth activity (IC50) [1] | IC50 [2, 11] [µM] | IC50 [2, 12] [µM] | IC50 [3, 13] [µM] | IC50 [3, 14] [µM] | IC50 [4, 15] [µM] | IC50 [4, 16] [µM] | IC50 [5, 17] [µM] | IC50 [5, 18] [µM] | IC50 [6, 19] [µM] | IC50 [6, 20] [µM] | IC50 [7, 21] [µM] | IC50 [7, 22] [µM] | IC50 [8, 23] [µM] | IC50 [8, 24] [µM] | evaluation of ability to inhibit cell growth activity (IC50) [4, 25] | evaluation of ability to inhibit cell growth activity (IC50) [5, 26] | evaluation of ability to inhibit cell growth activity (IC50) [8] | other results
1 | CC(=O)O[C@H]1C=C2[C@@H](CC[C@H](OC(C)=O)C2(C)C)[C@]2(C=O)CC[C@]3(C)[C@@H]([C@H](C)C[C@@H](O)C=C(C)C)CC[C@@]3(C)[C@H]12 [Compound 5] | 8.8 | 8 to 16 | ◯ | 25.3 | 16 to 64 | 8.07 | 8 to 16 | 16.8 | 16 to 64 | 16.4 | 16 to 64 | 12 | 8 to 16 | 3.67 | < 8 | 18.5 | 16 to 64 |  |  |  | evaluation of ability to inhibit cell growth activity (IC50) ([3]; MDA-MB-231 cells, grade of the IC50 of Table 2): ◯; evaluation of ability to inhibit cell growth activity (IC50) ([6]; A549 cells, grade of the IC50 of Table 2): ◯
2 | CC(=O)O[C@H]1CC[C@@H]2C(=C[C@H](O)[C@@H]3[C@@]2(C=O)CC[C@]2(C)[C@@H]([C@H](C)C[C@H](C=C(C)C)OC(C)=O)CC[C@@]32C)C1(C)C [Compound 6] | 23.4 | 16 to 64 |  | 23.1 | 16 to 64 | 23.5 | 16 to 64 | 14 | 8 to 16 | 14.9 | 8 to 16 | 5.43 | < 8 | 1.57 | < 8 | 16.2 | 16 to 64 | ◯ | ◯ |  | 
3 | CC(=O)O[C@H]1C=C2[C@@H](CC[C@H](O)C2(C)C)[C@]2(C=O)CC[C@]3(C)[C@@H]([C@H](C)C[C@H](C=C(C)C)OC(C)=O)CC[C@@]3(C)[C@H]12 [Compound 7] | 8.51 | 8 to 16 | ◯ | 23.2 | 16 to 64 | 6 | < 8 | 13.9 | 8 to 16 | 13.5 | 8 to 16 | 6.26 | < 8 | 5.52 | < 8 | 11.9 | 8 to 16 | ◯ | ◯ | ◯ | 
4 | CC(=O)O[C@H]1C=C2[C@@H](CC[C@H](O)C2(C)C)[C@]2(C=O)CC[C@]3(C)[C@@H]([C@H](C)C[C@@H](O)C=C(C)C)CC[C@@]3(C)[C@H]12 [Compound 8] |  |  |  |  |  |  |  |  |  |  |  |  |  |  |  |  |  | ◯ | ◯ | ◯ | IC50 [1, 27]: 7.54 µM; IC50 [1, 28]: < 8 µM; IC50 [2, 27]: 24.2 µM; IC50 [2, 28]: 16 to 64 µM; IC50 ([3]; MDA-MB-231 cells, 48 hours, 0.1% FCS, Resazurin, read-out: inhibitory concentrations of cell growth activity IC50): 5.19 µM; IC50 ([3]; MDA-MB-231 cells, grade of the IC50 of Table 2, read-out: evaluation of ability to inhibit cell growth activity (IC50)): < 8 µM; IC50 ([4]; MDA-MB-468 cells, 48 hours, 0.1% FCS, Resazurin, read-out: inhibitory concentrations of cell growth activity IC50): 9.81 µM; IC50 ([5]; SW480 cells, 48 hours, 0.1% FCS, Resazurin, read-out: inhibitory concentrations of cell growth activity IC50): 13.8 µM; IC50 ([6]; A549 cells, 48 hours, 0.1% FCS, Resazurin, read-out: inhibitory concentrations of cell growth activity IC50): 4.86 µM; IC50 ([6]; A549 cells, grade of the IC50 of Table 2, read-out: evaluation of ability to inhibit cell growth activity (IC50)): < 8 µM; IC50 ([7]; U937 cells, 48 hours, 0.1% FCS, Resazurin, read-out: inhibitory concentrations of cell growth activity IC50): 5.39 µM; IC50 ([7]; U937 cells, grade of the IC50 of Table 2, read-out: evaluation of ability to inhibit cell growth activity (IC50)): < 8 µM; IC50 [8, 27]: 11.5 µM
5 | CC(=O)O[C@H]1C=C2[C@@H](CC[C@H](O)C2(C)C)[C@]2(C=O)CC[C@]3(C)[C@@H]([C@H](C)C/C=C/C(C)(C)O)CC[C@@]3(C)[C@H]12 [Compound 9] | 15.6 | 8 to 16 | ◯ | 25.9 | 16 to 64 | 18.3 | 16 to 64 | 26.8 | 16 to 64 | 31.8 | 16 to 64 | 24.4 | 16 to 64 | 11.2 | 8 to 16 | 5.07 | < 8 |  |  |  | evaluation of ability to inhibit cell growth activity (IC50) ([7]; U937 cells, grade of the IC50 of Table 2): ◯
